Activity calls are given as the source filed them. The calls are words filed in the database; no cut-off is given here.
Assays:
3T3-L1 [1] = test: Anti-adipogenic activity against mouse 3T3-L1 cells assessed as decrease in triglyceride level at 1 uM by Oil Red O staining based spectroscopic analysis; type: functional; parameters: scale not given: the % may be the effect or the level left
3T3-L1 [2] = test: Anti-adipogenic activity against mouse 3T3-L1 cells assessed as decrease in triglyceride level at 0.01 to 10 uM by Oil Red O staining based microscopic analysis; type: functional, cell-based; settings: dose 0.01-10 µM
3T3-L1 [3] = test: Anti-adipogenic activity against mouse 3T3-L1 cells assessed as downregulation of C/EBPalpha mRNA expression level at 0.1 to 1 uM incubated for 24 hrs by RT-qPCR analysis; type: functional, cell-based; settings: dose 0.1-1 µM
3T3-L1 [4] = test: Anti-adipogenic activity against mouse 3T3-L1 cells assessed as downregulation of C/EBPdelta mRNA expression level at 0.1 to 1 uM incubated for 24 hrs by RT-qPCR analysis; type: functional, cell-based; settings: dose 0.1-1 µM
3T3-L1 [5] = test: Anti-adipogenic activity against mouse 3T3-L1 cells assessed as downregulation of DGAT2 protein expression level at 0.1 to 1 uM incubated for 6 days by Western blot analysis; type: functional, cell-based; settings: dose 0.1-1 µM, time 6.0 day
Mus musculus [6] = test: Anti-obesity activity in high fat diet-induced obese C57BL/6J mouse model assessed as increase in glucose clearance at 40 mg/kg, ip administered every two days for 3 weeks pretreated with compound and followed by glucose challenge and measured upto 120 mins by IPGTT assay; type: functional, organism-based
Mus musculus [7] = test: Anti-obesity activity in high fat diet-induced obese C57BL/6J mouse model assessed as increase in COX4 expression level in inguen white adipose tissue at 40 mg/kg, ip administered every two days for 46 days by immunohistochemical analysis; type: functional, organism-based; settings: time 46.0 day
Mus musculus [8] = test: Anti-obesity activity in high fat diet-induced obese C57BL/6J mouse model assessed as increase in PGC-1alpha expression level in liver at 40 mg/kg, ip administered every two days for 46 days by immunohistochemical analysis; type: functional, organism-based; settings: time 46.0 day
Mus musculus [9] = test: Anti-obesity activity in high fat diet-induced obese C57BL/6J mouse model assessed as decrease in brown adipocyte size at 40 mg/kg, ip administered every two days for 46 days by Hand E staining based microscopic analysis; type: functional, organism-based; settings: time 46.0 day
3T3-L1 [10] = test: Anti-adipogenic activity in SiRNA mediated Raptor knockdown mouse 3T3-L1 cells assessed as C/EBPalpha expression level at 10 uM by Western blot analysis; type: functional, cell-based
3T3-L1 [11] = test: Anti-adipogenic activity in SiRNA mediated Raptor knockdown mouse 3T3-L1 cells assessed as PPARgamma expression level at 10 uM by Western blot analysis; type: functional, cell-based
mTORC1 (Mus musculus) [12] = molecular target: mTORC1 (Mus musculus) (UniProt Q9JLN9); test: Inhibition of mTORC1 formation in mouse 3T3-L1 cells assessed as decrease in Raptor/mLST8 interaction at 10 uM incubated for 24 hrs by reciprocal co-immunoprecipitation assay; type: cell-based
mTORC1 (Mus musculus) [13] = molecular target: mTORC1 (Mus musculus) (UniProt Q9JLN9); test: Inhibition of mTORC1 formation in mouse 3T3-L1 cells assessed as increase in phosphorylated-4E-BP1 expression level at 10 uM incubated for 24 hrs by Western blot analysis; type: cell-based
mTORC1 (Mus musculus) [14] = molecular target: mTORC1 (Mus musculus) (UniProt Q9JLN9); test: Inhibition of mTORC1 formation in siRNA mediated Raptor knockdown mouse 3T3-L1 cells assessed as decrease in S6K1 expression level at 10 uM incubated for 24 hrs by Western blot analysis; type: cell-based

- inhibition (mTORC1 (Mus musculus) [12]): inactive
- inhibition (mTORC1 (Mus musculus) [13]): Active
- inhibition (mTORC1 (Mus musculus) [14]): Active
Compound: C=C(C)[C@@]12OC3(c4ccccc4)O[C@@H]1[C@@H]1[C@H](O)[C@](Cl)(COC(=O)c4ccccc4)[C@@H](O)[C@]4(O)C(=O)C(C)=C[C@H]4[C@@]1(O3)[C@H](C)[C@H]2OC(C)=O
- Activity (3T3-L1 [1]): >50%
- Activity (3T3-L1 [2]): Active
- Activity (3T3-L1 [3]): Active
- Activity (3T3-L1 [4]): Active
- Activity (3T3-L1 [5]): Active
- Activity (Mus musculus [6]): Active
- Activity (Mus musculus [7]): Active
- Activity (Mus musculus [8]): Active
- Activity (Mus musculus [9]): Active
- Activity (3T3-L1 [10]): Active
- Activity (3T3-L1 [11]): Active

Reference: ChEMBL document CHEMBL5380850, “Discovery of the First Raptor (Regulatory-Associated Protein of mTOR) Inhibitor as a New Type of Antiadipogenic Agent” (J Med Chem, 2023)
